Source: PubChem BioAssay AID248 (DTP/NCI, 2004)
“And” between values parts separate entries of the source, which are not always exact repeats. Equal entries are not always repeated. Toxic doses and inconclusive results are not listed.

Test system: L1210 leukemia ip in BDF1 mice, survival T/C
Assay: NCI In Vivo Anticancer Drug Screen. Data for tumor model L1210 Leukemia (intraperitoneal) in B6D2F1 (BDF1) mice
Details: endpoint: mean survival time, higher = longer survival
Procedure, shortened: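 Tumor cells were implanted, animals were treated, and survival was followed. The result divides the treated measurement by the vehicle-control measurement.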

[1] = dose: 100.0 mg/kg/injection, schedule: Q01DX001 (ip), vehicle: saline
[2] = dose: 200.0 mg/kg/injection, schedule: Q01DX001 (ip), vehicle: saline
[3] = dose: 400.0 mg/kg/injection, schedule: Q01DX001 (ip), vehicle: saline
[4] = dose: 100.0 mg/kg/injection, schedule: Q04DX003 (ip), vehicle: Klucel (hydroxypropylcellulose) (HPC)
[5] = dose: 200.0 mg/kg/injection, schedule: Q04DX003 (ip), vehicle: Klucel (hydroxypropylcellulose) (HPC)
[6] = dose: 400.0 mg/kg/injection, schedule: Q04DX003 (ip), vehicle: Klucel (hydroxypropylcellulose) (HPC)
[7] = dose: 50.0 mg/kg/injection, schedule: Q01DX001 (ip), vehicle: carboxymethylcellulose (CMC)
[8] = dose: 100.0 mg/kg/injection, schedule: Q01DX001 (ip), vehicle: carboxymethylcellulose (CMC)
[9] = dose: 200.0 mg/kg/injection, schedule: Q01DX001 (ip), vehicle: carboxymethylcellulose (CMC)
[10] = dose: 400.0 mg/kg/injection, schedule: Q01DX001 (ip), vehicle: carboxymethylcellulose (CMC)
[11] = dose: 50.0 mg/kg/injection, schedule: Q01DX009 (ip), vehicle: saline with Tween-80
[12] = dose: 100.0 mg/kg/injection, schedule: Q01DX009 (ip), vehicle: saline with Tween-80
[13] = dose: 200.0 mg/kg/injection, schedule: Q01DX009 (ip), vehicle: saline with Tween-80
[14] = dose: 100.0 mg/kg/injection, schedule: Q04DX003 (ip), vehicle: saline with Tween-80
[15] = dose: 200.0 mg/kg/injection, schedule: Q04DX003 (ip), vehicle: saline with Tween-80
[16] = dose: 100.0 mg/kg/injection, schedule: Q04DX002 (ip), vehicle: Klucel (hydroxypropylcellulose) (HPC)
[17] = dose: 200.0 mg/kg/injection, schedule: Q04DX002 (ip), vehicle: Klucel (hydroxypropylcellulose) (HPC)
[18] = dose: 400.0 mg/kg/injection, schedule: Q04DX002 (ip), vehicle: Klucel (hydroxypropylcellulose) (HPC)
[19] = dose: 100.0 mg/kg/injection, schedule: Q01DX001 (ip), vehicle: Klucel (hydroxypropylcellulose) (HPC)
[20] = dose: 200.0 mg/kg/injection, schedule: Q01DX001 (ip), vehicle: Klucel (hydroxypropylcellulose) (HPC)
[21] = dose: 400.0 mg/kg/injection, schedule: Q01DX001 (ip), vehicle: Klucel (hydroxypropylcellulose) (HPC)

CC[C@H](CC[C@@H](C)[C@H]1CC[C@H]2[C@@H]3CC=C4C[C@@H](O)CC[C@]4(C)[C@H]3CC[C@]12C)C(C)C
T/C (dose: 12.5 mg/kg/injection, schedule: Q01DX001 (ip), vehicle: saline): 93 % of control | T/C (dose: 12.5 mg/kg/injection, schedule: Q04DX003 (ip), vehicle: saline): 98 % of control | T/C (dose: 25.0 mg/kg/injection, schedule: Q01DX001 (ip), vehicle: saline): 94 % of control | T/C (dose: 25.0 mg/kg/injection, schedule: Q04DX003 (ip), vehicle: saline): 105 % of control | T/C (dose: 50.0 mg/kg/injection, schedule: Q01DX001 (ip), vehicle: saline): 88 % of control | T/C (dose: 50.0 mg/kg/injection, schedule: Q04DX003 (ip), vehicle: saline): 98 % of control | T/C (dose: 75.0 mg/kg/injection, schedule: Q04DX003 (ip), vehicle: saline): 89 % of control | T/C [1]: 89 % of control and 95 % of control | T/C (dose: 115.0 mg/kg/injection, schedule: Q04DX003 (ip), vehicle: saline): 91 % of control | T/C (dose: 170.0 mg/kg/injection, schedule: Q04DX003 (ip), vehicle: saline): 87 % of control | T/C [2]: 97 % of control | T/C (dose: 255.0 mg/kg/injection, schedule: Q04DX003 (ip), vehicle: saline with Tween-80): 90 % of control | T/C (dose: 385.0 mg/kg/injection, schedule: Q04DX003 (ip), vehicle: saline with Tween-80): 96 % of control | T/C [3]: 104 % of control and 107 % of control

CCOC(=O)C(Cc1ccc(O)cc1)NP(=O)(OCCCl)OCCCl (stereo not given)
T/C (dose: 100.0 mg/kg/injection, schedule: Q01DX009 (ip), vehicle: Klucel (hydroxypropylcellulose) (HPC)): 100 % of control | T/C [4]: 95 % of control | T/C (dose: 200.0 mg/kg/injection, schedule: Q01DX009 (ip), vehicle: Klucel (hydroxypropylcellulose) (HPC)): 98 % of control | T/C [5]: 90 % of control | T/C (dose: 400.0 mg/kg/injection, schedule: Q01DX009 (ip), vehicle: Klucel (hydroxypropylcellulose) (HPC)): 100 % of control | T/C [6]: 94 % of control

Cc1c(Cl)cccc1-n1c(C)nc2ccccc2c1=O
T/C [7]: 93 % of control | T/C [8]: 98 % of control | T/C [9]: 93 % of control | T/C [10]: 102 % of control

Cc1nc2nc(C(F)(F)F)[nH]c2nc1C
T/C [11]: 98 % of control | T/C [12]: 96 % of control and 120 % of control | T/C [13]: 101 % of control and 102 % of control

COC(=O)c1[nH]cnc1/N=N/N(C)CCO
T/C (dose: 88.0 mg/kg/injection, schedule: Q01DX001 (ip), vehicle: saline): 95 % of control | T/C [1]: 104 % of control | T/C (dose: 133.0 mg/kg/injection, schedule: Q01DX001 (ip), vehicle: saline): 97 % of control | T/C [2]: 101 % of control and 107 % of control | T/C (dose: 267.0 mg/kg/injection, schedule: Q01DX009 (ip), vehicle: saline): 109 % of control | T/C (dose: 300.0 mg/kg/injection, schedule: Q01DX001 (ip), vehicle: saline): 103 % of control | T/C [3]: 102 % of control | T/C (dose: 400.0 mg/kg/injection, schedule: Q01DX009 (ip), vehicle: saline): 100 % of control | T/C (dose: 600.0 mg/kg/injection, schedule: Q01DX009 (ip), vehicle: saline): 109 % of control | T/C (dose: 600.0 mg/kg/injection, schedule: Q01DX015 (ip), vehicle: saline): 157 % of control | T/C (dose: 900.0 mg/kg/injection, schedule: Q01DX009 (ip), vehicle: saline): 111 % of control

C/C(=N/NC(=O)C1CCCO1)c1ccc(C)cc1 (stereo not given)
T/C (dose: 12.5 mg/kg/injection, schedule: Q01DX009 (ip), vehicle: Klucel (hydroxypropylcellulose) (HPC)): 104 % of control | T/C (dose: 25.0 mg/kg/injection, schedule: Q01DX009 (ip), vehicle: Klucel (hydroxypropylcellulose) (HPC)): 102 % of control

COc1cc2c(cc1OC)-c1nc(C)sc1CC2
T/C [14]: 98 % of control | T/C [15]: 95 % of control | T/C (dose: 400.0 mg/kg/injection, schedule: Q04DX003 (ip), vehicle: saline with Tween-80): 98 % of control

O=C1OC2CCCCC2/C1=C/OS(=O)(=O)C(F)(F)F (stereo not given)
T/C (dose: 12.5 mg/kg/injection, schedule: Q01DX009 (ip), vehicle: DMSO): 105 % of control | T/C (dose: 25.0 mg/kg/injection, schedule: Q01DX009 (ip), vehicle: DMSO): 103 % of control | T/C (dose: 50.0 mg/kg/injection, schedule: Q01DX009 (ip), vehicle: DMSO): 110 % of control | T/C (dose: 100.0 mg/kg/injection, schedule: Q01DX009 (ip), vehicle: DMSO): 110 % of control | T/C (dose: 200.0 mg/kg/injection, schedule: Q01DX009 (ip), vehicle: DMSO): 117 % of control

OC1CC2(c3ccccc3)OC1(c1ccccc1)c1ccccc12 (stereo not given)
T/C [16]: 112 % of control | T/C [17]: 101 % of control | T/C [18]: 115 % of control

CN1CCN(C(=O)c2ccccc2C(=O)O)CC1
T/C [1]: 101 % of control | T/C [2]: 96 % of control

ON=C1CCSCC1
T/C [1]: 107 % of control | T/C [2]: 98 % of control | T/C [3]: 108 % of control

CCOC(=O)CCc1cc2cc(C)nnc2[nH]1
T/C [16]: 95 % of control | T/C [17]: 91 % of control | T/C [18]: 106 % of control

Cc1ccc(C(=O)Cl)cc1S(=O)(=O)F
T/C (dose: 25.0 mg/kg/injection, schedule: Q01DX009 (ip), vehicle: saline with Tween-80): 95 % of control | T/C (dose: 25.0 mg/kg/injection, schedule: Q04DX003 (ip), vehicle: saline with Tween-80): 96 % of control | T/C [11]: 104 % of control | T/C (dose: 50.0 mg/kg/injection, schedule: Q04DX003 (ip), vehicle: saline with Tween-80): 100 % of control | T/C [14]: 96 % of control | T/C [15]: 94 % of control and 102 % of control

Cc1cc(Cl)c(Cl)cc1NC(=O)c1ccccc1Cl
T/C [16]: 97 % of control | T/C [17]: 97 % of control | T/C [18]: 94 % of control

COC1OC(COS(=O)(=O)c2ccc(C)cc2)C(N(C)C(C)=O)C1OS(=O)(=O)c1ccc(C)cc1 (stereo not given)
T/C [8]: 96 % of control | T/C [9]: 91 % of control | T/C [10]: 91 % of control

COc1ccc(OCCOC(=O)Nc2ccccc2C(F)(F)F)cc1
T/C [4]: 105 % of control | T/C [5]: 90 % of control | T/C [6]: 90 % of control

CC1(C)C2CC3C(=CCC4C(=O)C5CC=C6C(CC7CC6C7(C)C)C5C(=O)C43)C1C2 (stereo not given)
T/C [19]: 103 % of control | T/C [20]: 93 % of control | T/C [21]: 93 % of control

NC(=O)c1nnc(-c2ccccn2)[nH]c1=O
T/C [19]: 93 % of control

Cc1nnc(/N=C/c2ccccc2)n1/N=C/c1ccccc1
T/C (dose: 25.0 mg/kg/injection, schedule: Q04DX002 (ip), vehicle: Klucel (hydroxypropylcellulose) (HPC)): 90 % of control | T/C (dose: 50.0 mg/kg/injection, schedule: Q04DX002 (ip), vehicle: Klucel (hydroxypropylcellulose) (HPC)): 90 % of control | T/C [16]: 96 % of control

COC(=O)CCN(c1ccccc1)c1ccc(C)cc1
T/C [12]: 91 % of control | T/C [13]: 92 % of control | T/C (dose: 400.0 mg/kg/injection, schedule: Q01DX009 (ip), vehicle: saline with Tween-80): 92 % of control

OC1(c2ccccc2)c2ccccc2C(O)(c2ccccc2)c2cc3c(cc21)CCCC3 (stereo not given)
T/C [16]: 102 % of control | T/C [17]: 91 % of control | T/C [18]: 91 % of control

O=S(=O)(O)CCS(=O)(=O)O
T/C [7]: 97 % of control | T/C [8]: 100 % of control | T/C [9]: 97 % of control | T/C [10]: 97 % of control

COCC(O)C(OC)C(OC)C(C=O)NC(=O)NCCCl (stereo not given)
T/C [19]: 102 % of control | T/C [20]: 103 % of control | T/C [21]: 100 % of control

Nc1[nH]c(=S)[nH]c(=O)c1N=Nc1c(Br)cc(S(N)(=O)=O)cc1Br
T/C [8]: 94 % of control | T/C [9]: 100 % of control | T/C [10]: 103 % of control

Nc1nc(O)c(N2C(=O)c3ccccc3C2=O)c(=O)[nH]1
T/C (dose: 25.0 mg/kg/injection, schedule: Q04DX003 (ip), vehicle: Klucel (hydroxypropylcellulose) (HPC)): 93 % of control | T/C (dose: 50.0 mg/kg/injection, schedule: Q04DX003 (ip), vehicle: Klucel (hydroxypropylcellulose) (HPC)): 96 % of control | T/C [4]: 96 % of control
